The source of these data is US7897582B2, “Oligonucleotide compositions and methods for the modulation of the expression of B7 protein” (Isis Pharmaceuticals, Inc., priority 2003, dated 2011).

Strand notation (5' to 3'): a small letter for the sugar, then the base; units joined by * are phosphorothioate-linked, units joined directly phosphodiester-linked; [ ] holds rarer units or linkages, { } end groups; capitals alone tell only the bases. e = 2'-O-(2-methoxyethyl) (MOE); [5mC] = 5-methylcytosine; d = 2'-deoxy (DNA)

This data set has as its system human B7.2 mRNA. Kind of data set: Human B7.2 mRNA levels in THP-1 cells by quantitative real-time PCR (Example 27). More on the design: concentration or dose not given beside the values. The format is cell-based. An excerpt: In accordance with the present invention, an additional series of antisense compounds were designed to target different regions of the human B7.2 RNA, using published sequences (GenBank accession number U04343.1, incorporated herein as SEQ ID NO: 295, GenBank accession number BC040261.1, incorporated herein as SEQ ID NO: 296 and GenBank accession number NT—005543.12, a portion of which is incorporated herein as SEQ ID NO: 297). “Target site” indicates the first (5′-most) nucleotide number on the particular target sequence to which the compound binds. All compounds in Table 25 are chimeric oligonucleotides (“gapmers”) 20 nucleotides in length, composed of a central “gap” region consisting of ten 2′-deoxynucleotides, which is flanked on both sides (5′ and 3′ directions) by five-nucleotide “wings”. The wings are composed of 2′-methoxyethyl (2′-MOE)nucleotides. The internucleoside (backbone) linkages are phosphorothioate (P═S) throughout the oligonucleotide. All cytidine residues are 5-methylcytidines. The compounds were analyzed for their effect on human B7.2 mRNA levels in THP-1 cells by quantitative real-time PCR as described in other examples herein. Data are averages from three experiments. If present, “N.D.” indicates “no data”.
On to “323637 (antisense e[5mC]*e[5mC]*eT*e[5mC]*eA*dT*dT*d[5mC]*dA*dG*dA*dA*d[5mC]*d[5mC]*dA*eA*eG*eT*eT*eT) [compound 323637]”, for which the “% INHIB (inhibition of human B7.2 mRNA levels)” value (“% INHIB” for short) is given as 19%.

For the substance “323638 (antisense eG*eT*eA*eT*eA*d[5mC]*d[5mC]*dT*d[5mC]*dA*dT*dT*d[5mC]*dA*dG*eA*eA*e[5mC]*e[5mC]*eA) [compound 323638]”, the “% INHIB” value was found to be 20%.

“323639 (antisense eG*e[5mC]*e[5mC]*eT*eA*dA*dG*dT*dA*dT*dA*d[5mC]*d[5mC]*dT*d[5mC]*eA*eT*eT*e[5mC]*eA) [compound 323639]”: the “% INHIB” value was found to be 55%.

For “323640 (antisense e[5mC]*eT*e[5mC]*eT*eT*dT*dG*d[5mC]*d[5mC]*dT*dA*dA*dG*dT*dA*eT*eA*e[5mC]*e[5mC]*eT) [compound 323640]”, the “% INHIB” value is on record as 28%.

As to “323641 (antisense e[5mC]*e[5mC]*e[5mC]*eA*eT*dA*dT*dA*d[5mC]*dT*dT*dG*dG*dA*dA*eT*eG*eA*eA*e[5mC]) [compound 323641]”, the “% INHIB” value is 88%.

As to “323642 (antisense e[5mC]*eT*eT*eG*eT*dG*d[5mC]*dG*dG*d[5mC]*d[5mC]*d[5mC]*dA*dT*dA*eT*eA*e[5mC]*eT*eT) [compound 323642]”, the “% INHIB” value is recorded as 27%.

In the case of “323643 (antisense eA*eT*e[5mC]*eA*eA*dA*dA*d[5mC]*dT*dT*dG*dT*dG*d[5mC]*dG*eG*e[5mC]*e[5mC]*e[5mC]*eA) [compound 323643]”, the “% INHIB” value is recorded as 80%.

In the case of “323644 (antisense e[5mC]*e[5mC]*e[5mC]*eT*eT*dG*dT*d[5mC]*d[5mC]*dT*dT*dG*dA*dT*d[5mC]*eT*eG*eA*eA*eG) [compound 323644]”, the “% INHIB” value is on record as 71%.

“323645 (antisense eA*e[5mC]*eA*eA*eG*d[5mC]*d[5mC]*d[5mC]*dT*dT*dG*dT*d[5mC]*d[5mC]*dT*eT*eG*eA*eT*e[5mC]) [compound 323645]”: the “% INHIB” value came to 56%.

Turning to “323646 (antisense eT*eT*eG*eA*eT*dA*d[5mC]*dA*dA*dG*d[5mC]*d[5mC]*d[5mC]*dT*dT*eG*eT*e[5mC]*e[5mC]*eT) [compound 323646]”, the “% INHIB” value worked out at 33%.

Consider “323647 (antisense eA*eT*eA*e[5mC]*eA*dT*dT*dG*dA*dT*dA*d[5mC]*dA*dA*dG*e[5mC]*e[5mC]*e[5mC]*eT*eT) [compound 323647]”, for which the “% INHIB” value came to 41%.

As for “323648 (antisense eT*eG*eG*eA*eT*dG*dA*dT*dA*d[5mC]*dA*dT*dT*dG*dA*eT*eA*e[5mC]*eA*eA) [compound 323648]”, the “% INHIB” value was found to be 31%.

With “323649 (antisense eG*eA*eA*eT*eT*d[5mC]*dA*dT*d[5mC]*dT*dG*dG*dT*dG*dG*eA*eT*eG*e[5mC]*eG) [compound 323649]”, the “% INHIB” value is given as 81%.

Take “323650 (antisense eG*eT*eT*e[5mC]*eA*dG*dA*dA*dT*dT*d[5mC]*dA*dT*d[5mC]*dT*eG*eG*eT*eG*eG) [compound 323650]”: the “% INHIB” value was determined as 92%.

For “323651 (antisense eT*eG*eA*e[5mC]*eA*dG*dT*dT*d[5mC]*dA*dG*dA*dA*dT*dT*e[5mC]*eA*eT*e[5mC]*eT) [compound 323651]”, the “% INHIB” value was 64%.

With “323652 (antisense eA*eG*e[5mC]*eA*e[5mC]*dT*dG*dA*d[5mC]*dA*dG*dT*dT*d[5mC]*dA*eG*eA*eA*eT*eT) [compound 323652]”, the “% INHIB” value amounted to 87%.

Consider “323653 (antisense eT*eA*eG*e[5mC]*eA*dA*dG*d[5mC]*dA*d[5mC]*dT*dG*dA*d[5mC]*dA*eG*eT*eT*e[5mC]*eA) [compound 323653]”, for which the “% INHIB” value was 96%.

As to “323654 (antisense eT*eG*eA*eA*eG*dT*dT*dA*dG*d[5mC]*dA*dA*dG*d[5mC]*dA*e[5mC]*eT*eG*eA*e[5mC]) [compound 323654]”, the “% INHIB” value worked out at 87%.

Turning to “323655 (antisense eT*eT*eG*eA*e[5mC]*dT*dG*dA*dA*dG*dT*dT*dA*dG*d[5mC]*eA*eA*eG*e[5mC]*eA) [compound 323655]”, the “% INHIB” value came to 65%.

“323656 (antisense e[5mC]*eT*eA*eT*eT*dT*d[5mC]*dA*dG*dG*dT*dT*dG*dA*d[5mC]*eT*eG*eA*eA*eG) [compound 323656]”: the “% INHIB” value worked out at 76%.

On to “323657 (antisense eT*e[5mC]*eT*eG*eT*dT*dA*dT*dA*dT*dT*dA*dG*dA*dA*eA*eT*eT*eG*eG) [compound 323657]”, for which the “% INHIB” value is given as 43%.

For the substance “323658 (antisense eG*e[5mC]*eA*eG*eG*dT*d[5mC]*dA*dA*dA*dT*dT*dT*dA*dT*eG*eT*eA*e[5mC]*eA) [compound 323658]”, the “% INHIB” value was found to be 36%.

As to “323659 (antisense eG*eT*eA*eT*eA*dG*dA*dT*dG*dA*dG*d[5mC]*dA*dG*dG*eT*e[5mC]*eA*eA*eA) [compound 323659]”, the “% INHIB” value is reported as 56%.

Turning to “323660 (antisense eG*eG*eG*eT*eA*dA*d[5mC]*d[5mC]*dG*dT*dG*dT*dA*dT*dA*eG*eA*eT*eG*eA) [compound 323660]”, the “% INHIB” value turned out to be 71%.

For the substance “323661 (antisense eA*eG*eG*eT*eT*d[5mC]*dT*dG*dG*dG*dT*dA*dA*d[5mC]*d[5mC]*eG*eT*eG*eT*eA) [compound 323661]”, the “% INHIB” value came to 68%.

Regarding “323662 (antisense eT*eA*eG*e[5mC]*eA*dA*dA*dA*d[5mC]*dA*d[5mC]*dT*d[5mC]*dA*dT*e[5mC]*eT*eT*e[5mC]*eT) [compound 323662]”, the “% INHIB” value is 22%.

Turning to “323663 (antisense eG*eT*eT*e[5mC]*eT*dT*dA*dG*d[5mC]*dA*dA*dA*dA*d[5mC]*dA*e[5mC]*eT*e[5mC]*eA*eT) [compound 323663]”, the “% INHIB” value is 23%.

“323664 (antisense eA*eT*eT*e[5mC]*eT*dT*dG*dG*dT*dT*d[5mC]*dT*dT*dA*dG*e[5mC]*eA*eA*eA*eA) [compound 323664]”: the “% INHIB” value is 35%.

Take “323665 (antisense eG*eA*eT*eA*eG*dT*dT*dG*dA*dA*dT*dT*d[5mC]*dT*dT*eG*eG*eT*eT*e[5mC]) [compound 323665]”: the “% INHIB” value came to 43%.

With “323666 (antisense eA*e[5mC]*e[5mC]*eA*eT*d[5mC]*dA*dT*dA*d[5mC]*dT*d[5mC]*dG*dA*dT*eA*eG*eT*eT*eG) [compound 323666]”, the “% INHIB” value was 71%.

As for “323667 (antisense eA*eT*e[5mC]*eT*eT*dG*dA*dG*dA*dT*dT*dT*d[5mC]*dT*dG*e[5mC]*eA*eT*eA*eA) [compound 323667]”, the “% INHIB” value was 52%.

“323668 (antisense eA*e[5mC]*eA*eT*eT*dA*dT*d[5mC]*dT*dT*dG*dA*dG*dA*dT*eT*eT*e[5mC]*eT*eG) [compound 323668]”: the “% INHIB” value is 39%.

Consider “323669 (antisense e[5mC]*eG*eT*eA*e[5mC]*dA*dG*dT*dT*d[5mC]*dT*dG*dT*dG*dA*e[5mC]*eA*eT*eT*eA) [compound 323669]”, for which the “% INHIB” value came to 68%.

Turning to “323670 (antisense eA*eG*eA*e[5mC]*eA*dA*dG*d[5mC]*dT*dG*dA*dT*dG*dG*dA*eA*eA*e[5mC]*eG*eT) [compound 323670]”, the “% INHIB” value is recorded as 19%.

Turning to “323671 (antisense eG*eA*eA*eA*e[5mC]*dA*dG*dA*d[5mC]*dA*dA*dG*d[5mC]*dT*dG*eA*eT*eG*eG*eA) [compound 323671]”, the “% INHIB” value stood at 26%.

In the case of “323672 (antisense eG*eG*eA*eA*eT*dG*dA*dA*dA*d[5mC]*dA*dG*dA*d[5mC]*dA*eA*eG*e[5mC]*eT*eG) [compound 323672]”, the “% INHIB” value is 33%.

In the case of “323673 (antisense e[5mC]*eA*eT*e[5mC]*eA*dG*dG*dG*dA*dA*dT*dG*dA*dA*dA*e[5mC]*eA*eG*eA*e[5mC]) [compound 323673]”, the “% INHIB” value is listed as 38%.

On to “323674 (antisense e[5mC]*eG*eT*eA*eA*d[5mC]*dA*dT*d[5mC]*dA*dG*dG*dG*dA*dA*eT*eG*eA*eA*eA) [compound 323674]”, for which the “% INHIB” value is on record as 47%.

Take “323675 (antisense eA*eG*e[5mC]*eT*e[5mC]*dT*dA*dT*dA*dG*dA*dG*dA*dA*dA*eG*eG*eT*eG*eA) [compound 323675]”: the “% INHIB” value is given as 77%.

In the case of “323676 (antisense e[5mC]*e[5mC]*eT*e[5mC]*eA*dA*dG*d[5mC]*dT*d[5mC]*dT*dA*dT*dA*dG*eA*eG*eA*eA*eA) [compound 323676]”, the “% INHIB” value is on record as 24%.

With “323677 (antisense eG*eG*eA*eG*eG*d[5mC]*dT*dG*dA*dG*dG*dG*dT*d[5mC]*d[5mC]*eT*e[5mC]*eA*eA*eG) [compound 323677]”, the “% INHIB” value was 55%.
